Entries after “also recorded” stand apart in the source; their conditions may differ.
Assays:
lysosomal hydrolases = conditions: cited from earlier work
[1] = test system: antigen-positive E3 cell line; conditions: Krauer et al. 1992, read-out: IC50 (cytotoxicities); cited from earlier work
[2] = Rowland et al. 1993; cited from earlier work
E3 target cells = conditions: Pietersz et al. 1988; cited from earlier work
MDA cells = experiment: Induction of surface exposure of vimentin by drugs, intact cell radioimmunoassay; type: cell-based; conditions: 1 or 10 μM taxol, 1 or 10 μM doxorubicin, 0.1 or 1 μM mitoxanthrone, 12 to 16 hours
[3] = test system: hematological tumor cells; experiment: Vimentin vaccination of mice injected with hematological tumor cells; type: in vivo; conditions: mice vaccinated prior to injection of the tumor cells

In the case of COc1cccc2c1C(=O)c1c(O)c3c(c(O)c1C2=O)CC(O)(C(C)=O)CC3OC1CC(NC(=O)C(CC(C)C)NC(=O)C(C)N)C(O)C(C)O1 (stereo not drawn) [Ala-Leu-Dau derivative], the “time for conversion back to the free drug” value (lysosomal hydrolases) is listed as 2 h.

For O=c1[nH]c(=O)n([C@H]2C[C@H](O)[C@@H](CO)O2)cc1F [FUDR, 5-fluoro-2′-deoxyuridine], the IC50 [1] is listed as 0.4 nM.

For CC(=O)[C@]1(O)Cc2c(O)c3c(c(O)c2[C@@H](O[C@H]2C[C@H](N)[C@H](O)[C@H](C)O2)C1)C(=O)c1ccccc1C3=O [Ida, Idarubicin], the activities [2] is given as 12 nM and the IC50 (E3 target cells) is given as 120 nM.

With COc1cccc2c1C(=O)c1c(O)c3c(c(O)c1C2=O)C[C@@](O)(C(=O)CO)C[C@@H]3O[C@H]1C[C@H](N)[C@H](O)[C@H](C)O1 [doxorubicin] the “induction of surface exposure of vimentin” value (“induction” below) (MDA cells) was “slight induction”.

In the case of O=C1c2c(O)ccc(O)c2C(=O)c2c(NCCNCCO)ccc(NCCNCCO)c21 [mitoxanthrone], the “induction” value (MDA cells) is reported as “slight induction; also recorded: most significant effect”.

For CC(=O)O[C@H]1C(=O)[C@@]2(C)[C@H]([C@H](OC(=O)c3ccccc3)[C@]3(O)C[C@H](OC(=O)[C@H](O)[C@@H](NC(=O)c4ccccc4)c4ccccc4)C(C)=C1C3(C)C)[C@]1(OC(C)=O)CO[C@@H]1C[C@@H]2O [taxol], the “induction” value (MDA cells) was “slight induction”.

In the case of “vimentin: purified full length murine vimentin protein used as vaccine antigen, may be given with adjuvant”, the “tumor size versus mice not vaccinated” value [3] is reported as “smaller”.
